# Assay results taken from patent US5288723A, “A composition and a method of using veratridine and epinephrine as a local anesthetic” (priority 1991, dated 1994).
# Entries after “also recorded” stand apart in the source; their conditions may differ. Like-named read-outs stand apart in the source and are kept apart here.
# Assays:
# [1] = on average; cited from earlier work
# [2] = system: A-fibers of rabbit vagus nerve; assay: Sucrose-gap recording in the veratrinized region, A-fibers; set-up: species or system New Zealand white rabbit
# Protocol: Adult male New Zealand white rabbits (3±0.5 kg) were pretreated intramuscularly with a mixture of ketamine (200 mg), xylazine (20 mg) and atropine (0.4 mg) for sedation. Ten minutes after this treatment, the animals were anesthetized with diethyl ether. After cessation of respiration, a longitudinal skin incision was made, and the cervical portion of both vagus nerves was dissected. The vagus nerves were temporarily stored at room temperature (22° C.) in a beaker containing modified HEPES Liley (HL) solution stirred constantly by aeration with a mixture of 95% oxygen and 5% carbon dioxide. […]
# VTD free base (no. V-5754, lot 58F-7828, Sigma, St. Louis, Mo.) was stored in a desiccator below 0° C. and was used to prepare a 2 mM stock solution in dimethyl sulfoxide [DMSO], Fisher Scientific, lot 861316), which also was stored at below 0° C. […] The maximum equivalent content of DMSO is 0.5%, and in three control experiments we detected no change in electrophysiologic behavior with 1% DMSO.
# Nerves were desheathed and mounted in an acrylic sucrose-gap chamber (FIG. 2C). […] In contrast to the extracellular chamber described above, which measured APc in a drug-free segment after they had propagated through a VTD solution, the sucrose gap measured the behavior of the nerve membrane directly exposed to drug, the "veratrinized" nerve. […]
# [3] = system: Na^+ channel of the mammalian brain; settings: purified polypeptides in phospholipid vesicles; cited from earlier work
# [4] = system: B-fibers of rabbit vagus nerve; assay: Extracellular recording of compound action potentials (APc), desheathed vagus nerve, B-fibers; set-up: species or system New Zealand white rabbit; settings: for inhibition at 0.5 µM / activity at 0.5 µM: Oryctolagus cuniculus, 0.5 μM VTD; for inhibition at 0.5 µM: 70 min, 50 Hz, mean ± SEM; for activity at 0.5 µM: read-out: Amplitude of single APc elevation relative to amplitude at beginning of VTD exposure
# Protocol: (§1) Adult male New Zealand white rabbits (3±0.5 kg) were pretreated intramuscularly with a mixture of ketamine (200 mg), xylazine (20 mg) and atropine (0.4 mg) for sedation. Ten minutes after this treatment, the animals were anesthetized with diethyl ether. After cessation of respiration, a longitudinal skin incision was made, and the cervical portion of both vagus nerves was dissected. The vagus nerves were temporarily stored at room temperature (22° C.) in a beaker containing modified HEPES Liley (HL) solution stirred constantly by aeration with a mixture of 95% oxygen and 5% carbon dioxide.
# (§2) The modified HL solution used for bathing the nerve and subsequent drug perfusion consisted of (in mM): NaCl, 118.0; KCl, 5.0; CaCl2 2H2 0, 2.0; MgCl2 6H2 0, 1.0; α-D(+)-glucose, 11.0; NaHC03, 25.0; and N-2-hydroxy-ethylpiperazine-N-2-ethanesulfonic acid (HEPES) buffer, 5.0 mM. The pH was adjusted to 7.4±0.05 by addition of 1 N NaOH. The perfusion solution was bubbled with a gas mixture of 95% oxygen and 5% carbon dioxide at a vigorous rate just before flowing onto the nerve. The pH was stabilized by the HEPES buffer and maintained at 7.4.
# (§3) VTD free base (no. V-5754, lot 58F-7828, Sigma, St. Louis, Mo.) was stored in a desiccator below 0° C. and was used to prepare a 2 mM stock solution in dimethyl sulfoxide [DMSO], Fisher Scientific, lot 861316), which also was stored at below 0° C. VTD, a steroidal alkaloid (FIG. 2A) that is produced by certain lilies, has a solubility limited to approximately 10^-3 M in aqueous slat solutions [Kupchan and By, "The Veratrum Group," in Alkaloids, Vol. 10, Manske, R.H.F. (ed.), New York, Academic Press (1968), pp. 193-285]. The stock VTD solution was diluted to final concentrations of 0.2-10 μM by the addition of HL. The maximum equivalent content of DMSO is 0.5%, and in three control experiments we detected no change in electrophysiologic behavior with 1% DMSO.
# (§4) The nerves were cleaned and desheathed by microdissection before mounting in an airtight chamber (FIG. 2B) [Gissen et al., Anesthesiology 53:467-474 (1980)]. Petroleum jelly (White Petrolatum, Denison Laboratories) seals separated a central, 11-mm length of the nerve from the lateral pools, used for stimulating and recording with electrodes made of platinum wire. The central section of the chamber (volume 0.25 ml) was perfused with HL solution at 0.5 ml.min.^-1. The lateral pools containing the moistened ends of the nerves adsorbed to the electrodes were filled with paraffin oil. The APc s were propagated over 21 mm, from the stimulating to the recording electrodes, with the proximal recording electrodc located 4.5 mm from the edge of the central, drug exposure chamber. Thus, measured APc s were conducted in nerve exposed to drug for half of the conduction pathway, and had been conducting through drug-free medium over a distance containing at least two or three nodes of Ranvier (in the fastest-conducting fibers), before reaching the recording electrodes.
# (§5) The signal from the nerve was amplified 50 times (model AK 475 operational amplifier, Metametrics, Carlisle, Mass.) and passed to the oscilloscope preamplifiers (model 5A 22N, Tektronix). The preparation was not considered acceptable unless the APc signals from the nerve exceeded 1.5 mV for A-fibers, 0.5 mV for B-fibers, and 0.3 mV for C-fibers.
# (§6) Each nerve was exposed to only one VTD concentration, and each concentration was tested in four or five separate nerves, except in tie sheathed nerves, for which only two nerves were used. The temperature was 20°-22° C.
# (§7) The standard protocol used for testing the action of VTD was to record the APc elevations in control HL solution for 30-60 min. before adding VTD; for 60-75 min. during VTD application; and for 60-75 min. after replacement with VTD-free HL. […]
# [5] = system: A-fibers of rabbit vagus nerve; assay: Extracellular recording of compound action potentials (APc), desheathed vagus nerve, A-fibers; set-up: species or system New Zealand white rabbit; settings: for inhibition at 0.5 µM / activity at 0.5 µM: Oryctolagus cuniculus, 0.5 μM VTD; for inhibition at 0.5 µM: 1.25 h, mean ± SEM; for activity at 0.5 µM: read-out: Amplitude of single APc elevation relative to amplitude at beginning of VTD exposure
# Protocol: as §1, §2, §3, §4, §5, §6, §7
structure (smiles),measurement,setting,value
"COc1ccc(C(=O)OC2CCC3(C)C4CCC5C6(O)CC(O)C7(O)C(CN8CC(C)CCC8C7(C)O)C6(O)CC53OC24O)cc1OC (centres unmarked) [VTD, veratridine]",Fraction of drug molecules ionized,[1],more than 90%
same,A-fiber deflection between beginning and end of the train,"[2]; 0.2 μM VTD, 0.5 Hz stimulation",unchanged
same,A-fiber elevation after addition of VTD,[2]; 0.5 μm VTD,unchanged
same,Sodium flux into vesicles in response,[3],sodium flux into these vesicles occurs
same,Reversal of use-dependent effects on B-fibers by washing,[4]; 75 min. of washing with drug-free HL,not abolished completely
same,Single-stimulus APc after VTD compared with no-VTD controls,"[4]; B-fibers, 0.5 μM, 60 min. in VTD, P>0.05",no significant difference
same,Reversal of use-dependent depression by washing,"[4]; B-fibers, VTD-free HL wash",did not reverse
same,inhibition at 0.5 µM,"[4]; B-fibers, after 70 min. in VTD, P < 0.001 vs control, read-out: Percent inhibition of the tenth APc in a train compared to the first, VTD",55 ± 2.8%
same,inhibition at 0.5 µM,"[4]; B-fibers, after 70 min. wash, read-out: Percent inhibition of the tenth APc in a train compared to the first, HL (Wash)",52.6 ± 3.7%
same,activity at 0.5 µM,"[4]; B-fibers, during VTD exposure",105 ± 23%
same,activity at 0.5 µM,"[4]; B-fibers, wash period",108 ± 31%
same,Response of A-fibers during repetitive stimulation compared with drug-free solutions,"[5]; 2 μM VTD, 100-Hz stimulation",almost identical to that in drug-free solutions before and after VTD exposure
same,Single-stimulus APc after VTD compared with no-VTD controls,"[5]; A-fibers, 0.5 μM, 60 min. in VTD, P>0.05",no significant difference
same,Decline of APc elevation at the second stimulation,"[5]; A-fibers, 2 μM VTD, 100 Hz, normal refractory behavior",about 15%
same,Reversal of use-dependent depression by washing,"[5]; A-fibers, VTD-free HL wash",did not reverse
same,inhibition at 0.5 µM,"[5]; A-fibers, 100 Hz, after 75 min. in VTD, P < 0.001 vs control, read-out: Percent inhibition of the tenth APc in a train compared to the first, VTD",25.3 ± 3.5%
same,inhibition at 0.5 µM,"[5]; A-fibers, 100 Hz, after 75 min. of wash, read-out: Percent inhibition of the tenth APc in a train compared to the first, HL (Wash)",27 ± 2.8%
same,activity at 0.5 µM,"[5]; A-fibers, during VTD exposure",117 ± 7%
same,activity at 0.5 µM,"[5]; A-fibers, wash period",123 ± 14%
same,"Use-dependent reduction of APc by VTD, A-fibers",[5]; up to 2 μM,modified little; also recorded: inconsequential for A-fibers
